The values that follow come from PMC9693455, “Synthesis of Tetrasubstituted Phosphorus Analogs of Aspartic Acid as Antiproliferative Agents” (Molecules, 2022).

In series [1] the test system is SKOV3 (human ovarian carcinoma) cells. The series is described as follows: In vitro cytotoxicity (antiproliferative activity), CCK-8 assay, SKOV3. Format: cell-based. Particulars: for IC50: Homo sapiens, SK-OV-3, 48 h exposure, CCK-8. Here is the method: (§1) In vitro cytotoxicity of the phosphorated aspartic acid derivatives was evaluated by testing their antiproliferative activities against several human cancer cell lines. Cell counting kit (CCK-8) assay was used for the evaluation of growth inhibition. […] In addition, trisubstituted aminophosphonate 9a (Imine precursor, R^1 = H, R^2 = P(O)(OMe)2) and tetrasubstituted aminophosphonate 18 (R^1 = Me, R^2 = P(O)(OMe)2) are used as templates in order to evaluate the effect of the substituents (Table 1).
(§2) Human epithelial lung carcinoma cells (A549) (ATCC® CCL-185™, ATCC, Manassas, VA, USA) were grown in Kaighn’s Modification of Ham’s F-12 Medium (ATCC® 30-2004™, ATCC, Manassas, VA, USA) and lung fibroblast cells (MRC5) (ATCC® CCL-171™, ATCC, Manassas, VA, USA) were grown in Eagle’s Minimum Essential Medium (EMEM, ATCC® 30-2003™, ATCC, Manassas, VA, USA). Epithelial ovary adenocarcinoma cells (SKOV3) (ATCC® HTB-77™, ATCC, Manassas, VA, USA) were grown in McCoy’s 5A medium (ATCC® 30-2007™, ATCC, Manassas, VA, USA). All of them were supplemented with 10% of fetal bovine serum (FBS) (Sigma-Aldrich, Madrid, Spain) and with 1% of NORMOCIN solution (Thermo Fisher, Waltham, MA, USA). Cells were incubated at 37 °C and 5% CO2 atmosphere, and were split every 3–4 days to maintain monolayer coverage. For the cytotoxicity experiments, the A549 and SKOV3 cells were seeded in 96-well plates at a density of 2.5–3 × 10^3 cells per well and incubated overnight to achieve 70% of confluence at the time of exposition to the cytotoxic compound.
(§3) Cells were exposed to different concentrations of the cytotoxic compounds and were incubated for 48 h. Then, 10 µL of cell counting kit-8 was added into each well for an additional two hours’ incubation at 37 °C. The absorbance of each well was determined by an Automatic Elisa Reader System (Thermo Scientific Multiskan FC Automatic Elisa Reader System, Thermo Scientific, Shanghai, China) at 450 nm wavelength.

Series [2] has as its system MRC5 lung fibroblast cells. The series can be described thus: Selective toxicity, CCK-8 assay, non-malignant MRC5 lung fibroblasts. Type of series: cell-based. Particulars: for IC50: Homo sapiens, non-malignant MRC5 lung fibroblasts, 48 h exposure, CCK-8. Here is the method:
as §1, §2, §3

Series [3] has as its system A549 (carcinomic human alveolar basal epithelial) cells. The series is described as follows: In vitro cytotoxicity (antiproliferative activity), CCK-8 assay, A549. Type of series: cell-based. To be noted: 48 h exposure, CCK-8. Here is the method:
as §1, §2, §3

A value given as a limit tells only on which side of the number the result lay.

`CCOC(=O)CC(NS(=O)(=O)c1ccc(C)cc1)(c1ccc(SC(Cl)(Cl)Cl)cc1)P(=O)(OC)OC` (centres unmarked) [7d, Ethyl 3-(dimethoxyphosphoryl)-3-((4-methylphenyl)sulfonamido)-3-(4-((trichloromethyl)thio)phenyl)propanoate] returned a melting point of 123 to 124 °C. In addition, in series [1], the IC50 was 6.43 ± 0.64 µM. The IC50 in series [2] is 2.47 ± 0.3 µM. In addition, in series [3] (Homo sapiens, A549, 48 h), the IC50 is 4.41 ± 0.29 µM.

As for `CCOC(=O)CC(NS(=O)(=O)c1ccc(C)cc1)(c1cccc(F)c1)P(=O)(OC)OC` (centres unmarked) [7k, Ethyl 3-(dimethoxyphosphoryl)-3-(3-fluorophenyl)-3-((4-methylphenyl)sulfonamido)propanoate], the melting point was 111 to 112 °C. The compound further came in with an IC50 in series [1] greater than 50 µM. Further, in series [2], the IC50 was greater than 50 µM. Also, in series [3], 0.59 ± 0.09 µM corresponded to half-maximal inhibition (IC50). Besides, in series [3] (Homo sapiens, A549, 48 h), the midpoint of inhibition, the IC50, lay at 0.34 µM.

Consider `CCOC(=O)CC(NS(=O)(=O)c1ccc(C)cc1)(c1ccc(C(F)(F)F)cc1)P(=O)(OC)OC` (centres unmarked) [7p, Ethyl 3-(dimethoxyphosphoryl)-3-((4-methylphenyl)sulfonamido)-3-(4-(trifluoromethyl)phenyl)propanoate], for which the melting point was in the range of 114 to 115 °C. In addition, in series [1], the IC50 is 9.8 ± 0.6 µM. Besides, in series [2], the IC50 was greater than 50 µM and the “toxicity toward MRC5 non-malignant cells (in words)” value is reported as “no toxicity”. This compound also yielded an IC50 in series [3] (Homo sapiens, A549, 48 h) of 20.3 ± 1.14 µM.

`CCOC(=O)CC(NS(=O)(=O)c1ccc(C)cc1)(c1cccc(Cl)c1)P(=O)(OC)OC` (centres unmarked) [7g, Ethyl 3-(3-chlorophenyl)-3-(dimethoxyphosphoryl)-3-((4-methylphenyl)sulfonamido)propanoate] displayed a melting point of 88 to 89 °C. Further, the IC50 in series [1] was greater than 50 µM. Besides, in series [2], the IC50 was 38.1 ± 1.61 µM and the “toxicity toward MRC5 non-malignant cells (in words)” value is on record as “toxic against the healthy cells”. In addition, in series [3] (Homo sapiens, A549, 48 h), the IC50 turned out to be 2.96 ± 0.34 µM.

Take `CCOC(=O)CC(NS(=O)(=O)c1ccc(C)cc1)(c1ccc(Cl)c(Cl)c1)P(=O)(OC)OC` (centres unmarked) [7h, Ethyl 3-(3,4-dichlorophenyl)-3-(dimethoxyphosphoryl)-3-((4-methylphenyl)sulfonamido)propanoate]: the melting point was 109 to 110 °C. Besides, the IC50 in series [1] was determined as 6.94 ± 0.63 µM. This compound yielded an IC50 in series [2] of 11.3 ± 1.16 µM. In series [3] (Homo sapiens, A549, 48 h), this compound showed an IC50 of 1.05 ± 0.42 µM.

On to `CCOC(=O)CC(NS(=O)(=O)c1ccc(C)cc1)(c1ccccc1F)P(=O)(OC)OC` (centres unmarked) [7l, Ethyl 3-(dimethoxyphosphoryl)-3-(2-fluorophenyl)-3-((4-methylphenyl)sulfonamido)propanoate], for which the melting point fell in the range of 140 to 141 °C. In series [1], this compound came in with an IC50 greater than 50 µM. Further, the IC50 in series [2] was greater than 50 µM. In series [3] (Homo sapiens, A549, 48 h), this compound registered an IC50 of 0.9 ± 0.12 µM.

`CCOC(=O)CC(NS(=O)(=O)c1ccc(C)cc1)(c1ccc([N+](=O)[O-])cc1)P(=O)(OC)OC` (centres unmarked) [7q, Ethyl 3-(dimethoxyphosphoryl)-3-((4-methylphenyl)sulfonamido)-3-(4-nitrophenyl)propanoate] showed a melting point of 129 to 130 °C. In series [1], this compound had an IC50 greater than 50 µM. Besides, the IC50 in series [2] is greater than 50 µM. The compound further returned an IC50 in series [3] (Homo sapiens, A549, 48 h) of 0.67 ± 0.06 µM.

In turn, `CCOC(=O)CC(NS(=O)(=O)c1ccc(C)cc1)(c1ccc(Br)cc1)P(=O)(OC)OC` (centres unmarked) [7e, Ethyl 3-(4-bromophenyl)-3-(dimethoxyphosphoryl)-3-((4-methylphenyl)sulfonamido)propanoate] came in with a melting point of 138 to 139 °C. Moreover, in series [1], the half-inhibitory concentration (IC50) is greater than 50 µM. The IC50 in series [2] is greater than 50 µM. Further, in series [3] (Homo sapiens, A549, 48 h), the IC50 came to 1.08 ± 0.09 µM.

As for `CCOC(=O)CC(NS(=O)(=O)c1ccc(C)cc1)(c1ccc(Cl)s1)P(=O)(OC)OC` (centres unmarked) [7r, Ethyl 3-(5-chlorothiophen-2-yl)-3-(dimethoxyphosphoryl)-3-((4-methylphenyl)sulfonamido)propanoate], the melting point was 93 to 94 °C. In series [1], this compound showed an IC50 of 11.8 ± 0.6 µM. For the same compound, the IC50 in series [2] was greater than 50 µM. Besides, in series [3] (Homo sapiens, A549, 48 h), the IC50 worked out at 1.04 ± 0.28 µM.

As to `CCOC(=O)CC(NS(=O)(=O)c1ccc(C)cc1)(c1cccc(C)c1)P(=O)(OC)OC` (centres unmarked) [7c, Ethyl 3-(dimethoxyphosphoryl)-3-((4-methylphenyl)sulfonamido)-3-(m-tolyl)propanoate], the melting point fell in the range of 103 to 104 °C. Also, in series [1], the “cytotoxicity against SKOV3 cell line (in words)” value is listed as “no activity” and the IC50 was greater than 50 µM. This compound also returned an IC50 in series [2] greater than 50 µM. This compound also returned an IC50 in series [3] (Homo sapiens, A549, 48 h) of 2 ± 0.52 µM.

In turn, `CCOC(=O)CC(NS(=O)(=O)c1ccc(C)cc1)(c1ccc(OC)c(Cl)c1)P(=O)(OC)OC` (centres unmarked) [7i, Ethyl 3-(3-chloro-4-methoxyphenyl)-3-(dimethoxyphosphoryl)-3-((4-methylphenyl)sulfonamido)propanoate] had a melting point of 153 to 154 °C. The same compound registered an IC50 in series [1] greater than 50 µM. The compound further came in with a half-maximal inhibitory concentration (IC50) in series [2] greater than 50 µM. 1.44 ± 0.15 µM corresponded to half-maximal inhibition in series [3] (Homo sapiens, A549, 48 h) (IC50).

For `CCOC(=O)CC(NS(=O)(=O)c1ccc(C)cc1)(c1ccccc1)P(=O)(OC)OC` (centres unmarked) [7a, Ethyl 3-(dimethoxyphosphoryl)-3-((4-methylphenyl)sulfonamido)-3-phenylpropanoate], the melting point is 98 to 99 °C. In series [1], this compound had an IC50 greater than 50 µM. In series [2], this compound gave an IC50 greater than 50 µM. Further, 2.66 ± 0.26 µM corresponded to half-maximal inhibition in series [3] (Homo sapiens, A549, 48 h) (IC50).

`CCOC(=O)CC(NS(=O)(=O)c1ccc(C)cc1)(c1ccc(Cl)cc1)P(=O)(OC)OC` (centres unmarked) [7f, Ethyl 3-(4-chlorophenyl)-3-(dimethoxyphosphoryl)-3-((4-methylphenyl)sulfonamido)propanoate] registered a melting point of 133 to 134 °C. Moreover, in series [1], the IC50 was determined as 24.1 ± 1.45 µM. In series [2], this compound returned an IC50 greater than 50 µM. In series [3] (Homo sapiens, A549, 48 h), the IC50 was 3.09 ± 0.14 µM.

The compound `COP(=O)(OC)C(CC(=O)OCc1ccccc1)(NS(=O)(=O)c1ccc(C)cc1)c1ccccc1` (centres unmarked) [13b, Benzyl 3-(dimethoxyphosphoryl)-3-((4-methylphenyl)sulfonamido)-3-phenylpropanoate] showed a melting point of 84 to 85 °C. Moreover, the IC50 in series [1] is greater than 50 µM. Also, in series [2], the IC50 is greater than 50 µM. In addition, in series [3] (Homo sapiens, A549, 48 h), the IC50 is 5.2 ± 0.16 µM.

`CCOC(=O)CC(NS(=O)(=O)c1ccc(C)cc1)(c1ccc(F)cc1F)P(=O)(OC)OC` (centres unmarked) [7m, Ethyl 3-(2,4-difluorophenyl)-3-(dimethoxyphosphoryl)-3-((4-methylphenyl)sulfonamido)propanoate]: the melting point was in the range of 135 to 136 °C. The compound also showed an IC50 in series [1] greater than 50 µM. In series [2], this compound displayed an IC50 greater than 50 µM. The IC50 in series [3] (Homo sapiens, A549, 48 h) turned out to be 2.24 ± 0.31 µM.

With `CCOC(=O)CC(NS(=O)(=O)c1ccc(C)cc1)(c1ccc(C)cc1)P(=O)(OC)OC` (centres unmarked) [7b, Ethyl 3-(dimethoxyphosphoryl)-3-((4-methylphenyl)sulfonamido)-3-(p-tolyl)propanoate], the melting point fell in the range of 117 to 118 °C. In series [1], the “cytotoxicity against SKOV3 cell line (in words)” value is recorded as “no activity” and the IC50 is greater than 50 µM. Further, in series [2], the IC50 is 29.6 ± 2.98 µM and the “toxicity toward MRC5 non-malignant cells (in words)” value is given as “some toxicity”. The same compound showed an IC50 in series [3] (Homo sapiens, A549, 48 h) of 0.34 ± 0.04 µM.

Take `CCOC(=O)CC(NS(=O)(=O)c1ccc(C)cc1)(c1ccc(F)c(F)c1)P(=O)(OC)OC` (centres unmarked) [7n, Ethyl 3-(3,4-difluorophenyl)-3-(dimethoxyphosphoryl)-3-((4-methylphenyl)sulfonamido)propanoate]: the melting point fell in the range of 98 to 99 °C. In series [1], this compound had an IC50 greater than 50 µM. The IC50 in series [2] is greater than 50 µM. In series [3] (Homo sapiens, A549, 48 h), inhibition was half-maximal at 5.7 ± 0.7 µM (IC50).
